Bounds are passed on as bounds.

Results on eleven compounds are retold here after patent US11155550B2, “Histone deacetylase inhibitors and methods of use thereof” (Reaction Biology Corp., priority 2018, dated 2021).

One assay has as its target T1, Recombinant human HDAC6 (Homo sapiens, UniProt Q9UBN7).
T1 construct: full-length, MW=180 kDa; GST tag (N); made in house; host or cells: Sf9 insect cells (baculovirus)
T1 sequence (Q9UBN7 1-1215): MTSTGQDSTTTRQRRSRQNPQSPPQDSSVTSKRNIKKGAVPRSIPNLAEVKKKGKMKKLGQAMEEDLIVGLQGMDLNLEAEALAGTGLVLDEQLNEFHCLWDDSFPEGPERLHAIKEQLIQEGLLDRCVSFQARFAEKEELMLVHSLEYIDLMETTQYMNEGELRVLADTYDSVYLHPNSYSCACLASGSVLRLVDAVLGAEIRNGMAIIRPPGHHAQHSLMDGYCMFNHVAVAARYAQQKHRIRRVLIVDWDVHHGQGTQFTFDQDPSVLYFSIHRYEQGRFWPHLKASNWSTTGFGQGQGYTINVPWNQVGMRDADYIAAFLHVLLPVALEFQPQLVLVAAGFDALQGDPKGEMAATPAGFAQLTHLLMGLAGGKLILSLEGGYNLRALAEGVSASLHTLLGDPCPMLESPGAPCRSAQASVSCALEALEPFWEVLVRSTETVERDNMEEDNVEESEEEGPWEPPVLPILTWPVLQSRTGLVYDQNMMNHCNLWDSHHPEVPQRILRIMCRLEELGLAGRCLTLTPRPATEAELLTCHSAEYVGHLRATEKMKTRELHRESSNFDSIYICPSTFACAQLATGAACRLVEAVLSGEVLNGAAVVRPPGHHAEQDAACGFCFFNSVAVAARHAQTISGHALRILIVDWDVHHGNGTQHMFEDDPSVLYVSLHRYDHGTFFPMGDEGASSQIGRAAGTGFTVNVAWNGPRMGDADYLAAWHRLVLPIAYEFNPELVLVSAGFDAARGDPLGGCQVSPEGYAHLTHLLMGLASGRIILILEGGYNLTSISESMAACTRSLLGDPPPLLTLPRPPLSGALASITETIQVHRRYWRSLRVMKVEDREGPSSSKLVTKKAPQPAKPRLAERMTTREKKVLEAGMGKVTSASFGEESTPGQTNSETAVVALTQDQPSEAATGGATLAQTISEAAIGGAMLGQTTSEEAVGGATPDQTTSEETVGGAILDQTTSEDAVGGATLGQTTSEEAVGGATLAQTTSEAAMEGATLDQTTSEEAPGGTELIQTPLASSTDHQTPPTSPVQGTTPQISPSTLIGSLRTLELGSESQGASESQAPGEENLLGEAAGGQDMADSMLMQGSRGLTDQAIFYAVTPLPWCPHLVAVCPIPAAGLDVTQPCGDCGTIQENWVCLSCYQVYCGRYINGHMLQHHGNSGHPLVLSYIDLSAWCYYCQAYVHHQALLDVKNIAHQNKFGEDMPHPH
As to the kind of experiment: Biochemical HDAC enzymatic assay, HDAC6. The note with it: Table 1; incubation time 10 min. The protocol: Incubation time for HDAC1/2 is 120 min, and 10 min for other HDACs.
Recombinant human HDAC6 (GenBank Accession No. BC069243), full-length, MW=180 kDa, was expressed by baculovirus in Sf9 insect cells using an N-terminal GST tag.
(§1) • I. Compound handling: Testing compounds were dissolved in 100% DMSO to a specific concentration. The serial dilution was conducted by epMotion 5070 in DMSO. • II. HDAC reaction buffer: 50 mM Tris-HCl, pH8.0, 137 mM NaCl, 2.7 mM KCl, and 1 mM MgCl2, Added fresh: 1 mg/ml BSA, 1% DMSO. • III. Substrate: Fluorogenic HDAC General Substrate for HDAC1, 2, 3, 6, 10, 11 ans Sirt1, 2 and 3: Arg-His-Lys-Lys(Ac); HDAC8 only substrate: Arg-His-Lys(Ac)-Lys(Ac); Class2A Substrate (HDAC4, 5, 7 and 9): Acetyl-Lys(trifluoroacetyl)-AMC; Sirt5 substrate: Ac-Lys(succinyl)-AMC. • IV. General Reaction Procedure: (Standard IC50 determination) • a. Delivered 2× enzyme in wells of reaction plate except No Enzyme (No En) control wells. Add buffer in No En wells. • b. Delivered compounds in 100% DMSO into the enzyme mixture by Acoustic technology (Echo550; nanoliter range). Spin down and pre-incubation. • c. Delivered 2× Substrate Mixture (Fluorogenic HDAC Substrate and co-factor (500 μM of Nicotinamide adenine dinucleotide (NAD^+) in all Sirt assay) in all reaction wells to initiate the reaction. Spin and shake. • d. Incubated for 1-2 hr. at 30° C. with seal. • e. Added Developer with Trichostatin A (or TMP269 or NAD^+) to stop the reaction and to generate fluorescent color. • f. Fluorescence was read (excitatory, 360; emission, 460) using the EnVision Multilabel Plate Reader (Perkin Elmer) • g. Endpoint reading was taken for analysis after the development reaches plateau. • V. Data Analysis: The percentages of enzyme activity (relative to DMSO controls) and IC50 values were calculated using the GraphPad Prism 4 program based on a sigmoidal dose-response equation.
The inhibitory activities of HDAC of compounds of the invention were determined using biochemical HDAC assays. Compounds were tested at the indicated doses in the biochemical assays of HDAC1, HDAC2, HDAC3, HDAC4, HDAC5, HDAC6, HDAC7, HDAC8, HDAC9, HDAC10, or HDAC11 enzyme. The curve fit and IC50 values were calculated using the GraphPad Prism 4 program based on a sigmoidal dose-response equation.
as §1, with “[…]” for “μM”, “equation. […]” for “equation.”
In general, IC50 refers to the concentration needed to halve the response being measured. Take `Nc1cc(F)ccc1NC(=O)c1ccc(CN2C(=O)CCCC23CNC3)cc1` [Example 3, N-(2-amino-4-fluorophenyl)-4-((6-oxo-2,5-diazaspiro[3.5]nonan-5-yl)methyl)benzamide]: the IC50 was greater than 10000 nM.

Take `Nc1ccc(-c2ccc(F)cc2)cc1NC(=O)c1ccc(N2CC3(CCOCC3)OC2=O)nc1` [Example 5, N-(4-amino-4′-fluoro-[1,1′-biphenyl]-3-yl)-6-(2-oxo-1,8-dioxa-3-azaspiro[4.5]decan-3-yl)nicotinamide]: the IC50 was greater than 20000 nM.

For the compound `Nc1ccc(-c2cccs2)cc1NC(=O)c1ccc(N2CC3(CCNCC3)CCC2=O)nc1` [Example 6, N-(2-amino-5-(thiophen-2-yl)phenyl)-6-(3-oxo-2,9-diazaspiro[5.5]undecan-2-yl)nicotinamide], the IC50 was greater than 20000 nM.

As for `CN1CCC2(CC1)CN(c1ccc(C(=O)Nc3cc(-c4cccs4)ccc3N)cn1)C(=O)O2` [Example 4, N-(2-amino-5-(thiophen-2-yl)phenyl)-6-(8-methyl-2-oxo-1-oxa-3,8-diazaspiro[4.5]decan-3-yl)nicotinamide], the IC50 is greater than 20000 nM.

With `Nc1ccc(-c2cccs2)cc1NC(=O)c1ccc(CN2C(=O)CCC23CCNCC3)cc1` [Example 2, N-(2-amino-5-(thiophen-2-yl)phenyl)-4-((2-oxo-1,8-diazaspiro[4.5]decan-1-yl)methyl)benzamide], the IC50 was greater than 20000 nM.

As for `Nc1ccc(-c2cccs2)cc1NC(=O)c1ccc(CN2C(=O)CCCC23CNC3)cc1` [Example 1, N-(2-amino-5-(thiophen-2-yl)phenyl)-4-((6-oxo-2,5-diazaspiro[3.5]nonan-5-yl)methyl)benzamide], the IC50 is greater than 20000 nM.

The same assay, now with this note: Table 2; incubation time 10 min.
Take `O=C(NO)c1ccc(CN2C(=O)c3ccccc3C23CCN(C2CC2)CC3)cc1` [Compound Example 12, 4-((1′-cyclopropyl-3-oxospiro[isoindoline-1,4′-piperidin]-2-yl)methyl)-N-hydroxybenzamide]: the IC50 amounted to 26 nM.

`O=C(NO)c1ccc(CN2C(=O)c3ccccc3C23OCCO3)cc1` [Compound Example 8, N-hydroxy-4-((3-oxospiro[isoindoline-1,2′-[1,3]dioxolan]-2-yl)methyl)benzamide]: the IC50 was found to be 29 nM.

For `O=C(NO)c1ccc(CN2C(=O)C3(CCOC3)c3ccccc32)cc1` (centres unmarked) [Compound Example 9], the IC50 is 4.5 nM.

For `CN(C)C(=O)N1CCC2(CC1)c1ccccc1C(=O)N2Cc1ccc(C(=O)NO)cc1` [Compound Example 11, 2-(4-(hydroxycarbamoyl)benzyl)-N,N-dimethyl-3-oxospiro[isoindoline-1,4′-piperidine]-1′-carboxamide], the half-maximal inhibitory concentration (IC50) was found to be 35 nM.

With `O=C(NO)c1ccc(CN2C(=O)c3ccccc3C23CCNCC3)cc1` [Compound Example 10, N-hydroxy-4-((3-oxospiro[isoindoline-1,4′-piperidin]-2-yl)methyl)benzamide], the IC50 is 205 nM.
